Tested on: latent HIV-1 infection in LWI6 cells
Experiment: Reactivation of latent HIV-1 in LWI6 reporter cells, EGFP plate based fluorometry (384-well)
Format: cell-based
Conditions: LWI6, 1×10^5 cells/well, 384-well plate
Source text: Latently HIV-1 infected reporter cell lines with an increased dynamic range of the EGFP signal. An indicator cell line with HTS feasibility was generated through stable transfection with a reporter plasmid in which the HIV-1 promoter (long terminal repeat; LTR) controls the expression of EGFP. Nucleic acid sequences for HIV-1 LTR (SEQ ID NO:1) can be accessed via GenBank Accession No. X03189. All of the information, including any nucleic acid and amino acid sequences provided for HIV-1 LTR under GenBank Accession X03189 is hereby incorporated in its entirety by this reference. […] In the resulting latently infected T cell clones (LWI4, LWI6, LWI7, LRJ3, LRJ5, LRJ12), maximal EGFP expression was increased by a factor of 10 in comparison to other reporter cell lines incorporating GFP into the HIV-1 genome when analyzed by flow cytometry (FIG. 1).
Assay optimization in […] format plates. […] The need to work with low quantities of material and thus low numbers of reporter cells that are treated has to be balanced with the requirements to obtain a sufficiently high signal to background ratio to avoid false negative hits during the screen. […] Although EGFP fluorescence continued to increase up to the highest density of cells, wells with 1×10^5 cells gave a 40-fold increase of EGFP fluorescence intensity over background after 24 h, and an 80-fold increase after 48 h. […]

TNF-α
increase of EGFP fluorescence intensity over background (after 24 h): 40 fold
increase of EGFP fluorescence intensity over background (after 48 h): 80 fold

From patent publication US20080118494A1, “Compositions For Detection Of Latent Hiv Reactivation And Methods Of Using The Same” (priority 2004, published 2008)
